# Test system: NCI-H719 tumor spheroids, viability
# Experiment: Anticancer human tumor NCI-H719 cell line growth inhibition;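 also: spheroids exposed to compounds for seven days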;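 as to viability, T/C: percent viability relative to DMSO vehicle control as 100%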
# Details: spheroids with HUVEC and MSC; for IC50: curve of first compound; for viability, T/C: stronger effect = lower value
# Method in brief: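 Complex spheroids of malignant cells with endothelial cells and mesenchymal stem cells; agents alone or combined, from near clinical Cmax (or 10 microM if unknown) down in half-log steps, 0.25% DMSO final.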
compound,measurement,setting,value
[2H]c1nc(C)nc([2H])c1-c1cc(NC[C@@H](C)c2cccc3c(C(=O)NC)ccnc23)ncn1 + COc1cc2c(cc1O)CCNC21CSC2c3c(OC(C)=O)c(C)c4c(c3C(COC1=O)N1C(O)C3Cc5cc(C)c(OC)c(O)c5C(C21)N3C)OCO4,IC50,second compound 30 pM,> 10000 nM
same,IC50,second compound 94.9 pM,< 31.6 nM
same,IC50,second compound 0.0003 µM,< 31.6 nM
same,IC50,second compound 0.000949 µM,< 31.6 nM
same,IC50,second compound 0.003 µM,< 31.6 nM
same,"viability, T/C","second compound 30 pM, first compound 0.0316 µM",89.5%
same,"viability, T/C","second compound 30 pM, first compound 0.1 µM",82.5%
same,"viability, T/C","second compound 30 pM, first compound 0.316 µM",71.9%
same,"viability, T/C","second compound 30 pM, first compound 1 µM",66.6%
same,"viability, T/C","second compound 30 pM, first compound 3.16 µM",76.8%
same,"viability, T/C","second compound 30 pM, first compound 10 µM",79.7%
same,"viability, T/C","second compound 94.9 pM, first compound 0.0316 µM",20.4%
same,"viability, T/C","second compound 94.9 pM, first compound 0.1 µM",32.3%
same,"viability, T/C","second compound 94.9 pM, first compound 0.316 µM",38.6%
same,"viability, T/C","second compound 94.9 pM, first compound 1 µM",28.9%
same,"viability, T/C","second compound 94.9 pM, first compound 3.16 µM",22.1%
same,"viability, T/C","second compound 94.9 pM, first compound 10 µM",29.2%
same,"viability, T/C","second compound 0.0003 µM, first compound 0.0316 µM",6.45%
same,"viability, T/C","second compound 0.0003 µM, first compound 0.1 µM",6.02%
same,"viability, T/C","second compound 0.0003 µM, first compound 0.316 µM",6.77%
same,"viability, T/C","second compound 0.0003 µM, first compound 1 µM",8.36%
same,"viability, T/C","second compound 0.0003 µM, first compound 3.16 µM",6.88%
same,"viability, T/C","second compound 0.0003 µM, first compound 10 µM",7.14%
same,"viability, T/C","second compound 0.000949 µM, first compound 0.0316 µM",7.69%
same,"viability, T/C","second compound 0.000949 µM, first compound 0.1 µM",7.59%
same,"viability, T/C","second compound 0.000949 µM, first compound 0.316 µM",6.74%
same,"viability, T/C","second compound 0.000949 µM, first compound 1 µM",6.63%
same,"viability, T/C","second compound 0.000949 µM, first compound 3.16 µM",6.53%
same,"viability, T/C","second compound 0.000949 µM, first compound 10 µM",7.49%
same,"viability, T/C","second compound 0.003 µM, first compound 0.0316 µM",0.31%
same,"viability, T/C","second compound 0.003 µM, first compound 0.1 µM",0.58%
same,"viability, T/C","second compound 0.003 µM, first compound 0.316 µM",0.16%
same,"viability, T/C","second compound 0.003 µM, first compound 1 µM",0.86%
same,"viability, T/C","second compound 0.003 µM, first compound 3.16 µM",0.13%
same,"viability, T/C","second compound 0.003 µM, first compound 10 µM",0.24%
Cn1ncnc1[C@H]1c2n[nH]c(=O)c3cc(F)cc(c23)N[C@@H]1c1ccc(F)cc1 + COc1cc2c(cc1O)CCNC21CSC2c3c(OC(C)=O)c(C)c4c(c3C(COC1=O)N1C(O)C3Cc5cc(C)c(OC)c(O)c5C(C21)N3C)OCO4,IC50,second compound 30 pM,< 9.49 nM
same,IC50,second compound 94.9 pM,< 9.49 nM
same,IC50,second compound 0.0003 µM,< 9.49 nM
same,IC50,second compound 0.000949 µM,< 9.49 nM
same,IC50,second compound 0.003 µM,< 9.49 nM
same,"viability, T/C","second compound 30 pM, first compound 0.00949 µM",13.1%
same,"viability, T/C","second compound 30 pM, first compound 0.03 µM",10.3%
same,"viability, T/C","second compound 30 pM, first compound 0.0949 µM",8.87%
same,"viability, T/C","second compound 30 pM, first compound 0.3 µM",10.9%
same,"viability, T/C","second compound 30 pM, first compound 0.949 µM",8.74%
same,"viability, T/C","second compound 30 pM, first compound 3 µM",6.49%
same,"viability, T/C","second compound 94.9 pM, first compound 0.00949 µM",8.85%
same,"viability, T/C","second compound 94.9 pM, first compound 0.03 µM",7.16%
same,"viability, T/C","second compound 94.9 pM, first compound 0.0949 µM",8.84%
same,"viability, T/C","second compound 94.9 pM, first compound 0.3 µM",7.47%
same,"viability, T/C","second compound 94.9 pM, first compound 0.949 µM",7.26%
same,"viability, T/C","second compound 94.9 pM, first compound 3 µM",7.49%
same,"viability, T/C","second compound 0.0003 µM, first compound 0.00949 µM",9.25%
same,"viability, T/C","second compound 0.0003 µM, first compound 0.03 µM",8.07%
same,"viability, T/C","second compound 0.0003 µM, first compound 0.0949 µM",9.38%
same,"viability, T/C","second compound 0.0003 µM, first compound 0.3 µM",10.2%
same,"viability, T/C","second compound 0.0003 µM, first compound 0.949 µM",7.28%
same,"viability, T/C","second compound 0.0003 µM, first compound 3 µM",7.06%
same,"viability, T/C","second compound 0.000949 µM, first compound 0.00949 µM",7.36%
same,"viability, T/C","second compound 0.000949 µM, first compound 0.03 µM",7.49%
same,"viability, T/C","second compound 0.000949 µM, first compound 0.0949 µM",7.37%
same,"viability, T/C","second compound 0.000949 µM, first compound 0.3 µM",6.85%
same,"viability, T/C","second compound 0.000949 µM, first compound 0.949 µM",5.96%
same,"viability, T/C","second compound 0.000949 µM, first compound 3 µM",4.33%
same,"viability, T/C","second compound 0.003 µM, first compound 0.00949 µM",0.57%
same,"viability, T/C","second compound 0.003 µM, first compound 0.03 µM",0.36%
same,"viability, T/C","second compound 0.003 µM, first compound 0.0949 µM",0.96%
same,"viability, T/C","second compound 0.003 µM, first compound 0.3 µM",0.6%
same,"viability, T/C","second compound 0.003 µM, first compound 0.949 µM",0.86%
same,"viability, T/C","second compound 0.003 µM, first compound 3 µM",0.88%

# — PubChem BioAssay AID1845212 (Molecular Pharmacology Branch, DTP, NCI, 2023)
